The text below walks through data of patent publication US4122199A, “Amides of pyrrolidinoethylamine which can be used in treatment of coughs” (Pierre Fabre S.A., priority 1976, dated 1978).

Series [1] in a line: in vivo. To be noted: mouse, in vivo, mice, isotonic aqueous solution. On the procedure: (§1) It is determined on mice, the products being administered orally, intraperitoneally, and intraveneously in isotonic aqueous solution.
For series [2], the system named is micro-organisms. Briefly: Bactericidal action (subculture of the negative tubes). In kind it is cell-based. The note with it: at concentrations of 1 g percent. The protocol: (§2) The determination of fungistatic bacteriostatic properties was carried out by two methods on four strains:
(§3) Halved serial dilutions are formed in a hemoylsis tube, in each case to a volume of 1 ml; each dilution is inoculated with 10^6 micro-organisms per ml. After 48 hours in the oven, the minimum inhibitory concentration is determined. A subculture of the negative tubes (bacteriostatic), makes it possible to note the bactericidal concentration.

The subject of series [3] is Pseudomonas aeruginosa. In words: Fungistatic/bacteriostatic effect, Pseudomonas aeruginosa. Format: cell-based. To be noted: compared with S. aureus and E. coli. On the procedure:
as §2, §3

The test system of series [4] is guinea pigs. Briefly: Citric acid aerosol method on guinea pigs (antitussive). In kind it is in vivo. To be noted: for change in vivo at 50 mg/kg: Cavia porcellus, ip, 0.25 h, 50 mg/kg i.p., 20 minutes before 20% citric acid aerosol, read-out: % reduction of no. of coughs in 15 minutes; for % decrease in no. coughs in 15 mins.: orally, citric acid aerosol. The protocol:
The animals were subjected to a 20% citric acid aerosol for 15 minutes.
The coughs were recorded by a microphone.
The products were administered intraperitoneally 20 minutes before the exposure to the aerosol.
Some derivatives were also tested orally.

Series [5] in a line: Solubility characteristics. Format: physicochemical. The note with it: for Solubility in water / solubility: water.
In series [6] the test system is Candida albicans. Briefly: Fungistatic/bacteriostatic effect, Candida albicans. To be noted: compared with S. aureus and E. coli. Format: cell-based. On the procedure:
as §2, §3

The subject of series [7] is mice. In words: in vivo. The note with it: isotonic aqueous solution. On the procedure: as §1
The subject of series [8] is guinea pig. In words: Takagi's technique: coughing by mechanical stimulation of the tracheal bifurcation in the unanesthetized guinea pig. The note with it: 50 mg/kg i.p.; for Cough rating, m = average of the ratings, after treatment: 1 heavy, 0.5 light, 0 no cough. Format: in vivo. The protocol:
A second method using a different type of stimulation of coughs made it possible to note, as compared with codeine, the antitussive properties of the main components claimed.
The technique employed is derived from Takagi's technique, and consists in causing coughing by mechanical stimulation of the tracheal bifurcation in the unanesthetized guinea pig.
The cough is evaluated by the research worker in accordance with the following scale:
The products are administered intraperitoneally and the stimulation is effected 10 and 20 minutes after the injection.

Setting [9] is: ip, intraperitoneal, read-out: DL 50 intraperitoneal.
Setting [10] is: iv, intravenous, read-out: DL 50 intravenous.

Counter-ions that a name gives are not always drawn. Like-named read-outs stand apart in the source and are kept apart here.

Consider `O=C(NCCN1CCCC1)C(c1ccccc1)N1CCCCC1` (centres unmarked) [F 1533, N(2'-pyrrolidino-ethyl)phenyl piperidino-acetamide], for which the LD50 in series [1] (setting [9]) was 178 mg/kg. Moreover, the LD50 in series [1] (po, oral, read-out: DL 50 oral) was found to be 750 mg/kg. Moreover, the bactericidal action result in series [2] is “real and significant”. The “effect on Pseudomonas aeruginosa” value in series [3] is “more moderate but significant effect”. Further, in series [4], the change in vivo at 50 mg/kg is -7%. In series [5] (in words), the Solubility in ethanol entry is on record as “Very soluble” and the Solubility in water entry is on record as “insoluble”. The “effect on Candida albicans” value in series [6] is recorded as “more moderate but significant effect”.
In the case of `C=CCOc1c(C)cc(Br)cc1C(=O)NCCN1CCCC1` [F 1479, N(2'-pyrrolidino-ethyl)-2-allyloxy-5-bromo-3-methyl benzamide hydrochloride], in series [5] (in words), the Solubility in water result is reported as “very soluble”.
With `CC(C)(Oc1ccccc1)C(=O)NCCN1CCCC1` [F 1540, N(2'-pyrrolidino-ethyl)phenoxy-isobutyramide hydrochloride], in series [1] (setting [9]), the LD50 stood at 237 mg/kg. In addition, the LD50 in series [1] (po, oral, read-out: DL 50 oral) stood at 1000 mg/kg. Further, in series [5] (in words), the Solubility in ethanol result is “soluble”, the “Solubility in propylene glycol” value was “soluble” and the Solubility in water result is given as “soluble”.
For `O=C(O)c1ccccc1C(=O)NCCN1CCCC1` [F 1537, N(2'-pyrrolidino-ethyl)-2-carboxy-benzamide], the LD50 in series [1] (setting [9]) was determined as 500 mg/kg. In addition, in series [1] (po, oral, read-out: DL 50 oral), the LD50 was 1000 mg/kg. In addition, the change in vivo at 50 mg/kg in series [4] was -8%. Besides, in series [5] (in words), the Solubility in ethanol result is reported as “very soluble”, the “Solubility in propylene glycol” value is given as “very soluble” and the Solubility in water entry is reported as “very soluble”.
`CCOC(C(=O)NCCN1CCCC1)(c1ccccc1)c1ccccc1` [F 1460, N(2-pyrrolidino-ethyl)-α,α-diphenyl-α-ethoxy-acetamide hydrochloride]: the LD50 was determined as 178 mg/kg in series [1] (setting [9]); 40 mg/kg in series [1] (setting [10]); 750 mg/kg in series [1] (po, oral, read-out: DL 50 oral). The same compound showed a Solubility in ethanol in series [5] (% soluble) of 4%. The Solubility in ether result in series [5] (in words) is recorded as “insoluble”. Further, the solubility (commonly the concentration that dissolves in the medium under given conditions) in series [5] (% soluble) is 10 mg/mL.
For the compound `Cc1cc(Br)cc(C(=O)NCCN2CCCC2)c1O` [Example 9, N(2'-pyrrolidino-ethyl)-5-bromo-3-methyl-salicylamide hydrochloride], in series [5] (% soluble), the Solubility in ethanol is on record as 3% and the “Solubility in propylene glycol” value came to 7%. In series [5] (in words), the Solubility in ether result was “insoluble” and the Solubility in water result was “very soluble”.
On to `O=C(NCCN1CCCC1)C1c2ccccc2-c2ccccc21` [F 1532, N(2'-pyrrolidino-ethyl)-9-fluoroene-carboxamide hydrochloride], for which, in series [1] (setting [9]), the LD50 was 75 mg/kg. Besides, the LD50 in series [1] (po, oral, read-out: DL 50 oral) was 178 mg/kg. Besides, the bactericidal action entry in series [2] is “real and significant”. Further, the “effect on Pseudomonas aeruginosa” value in series [3] is recorded as “more moderate but significant effect”. Besides, in series [5] (in words), the Solubility in ethanol entry was “very soluble”, the “Solubility in propylene glycol” value is listed as “very soluble” and the Solubility in water result is “very soluble”. For the same compound, the “effect on Candida albicans” value in series [6] was “more moderate but significant effect”.
With `O=C(C=Cc1ccccc1)NCCN1CCCC1` [F 1542, N(2'-pyrrolidino-ethyl)cinnamide, HCl], the LD50 in series [1] (setting [9]) worked out at 178 mg/kg. Besides, the LD50 in series [1] (po, oral, read-out: DL 50 oral) stood at 1000 mg/kg. In series [4], the change in vivo at 50 mg/kg is -19.5%. Further, in series [5] (in words), the Solubility in ethanol entry was “very soluble”, the “Solubility in propylene glycol” value is reported as “very soluble” and the Solubility in water entry was “very soluble”.
Turning to `O=C(NCCN1CCCC1)C(c1ccccc1)c1ccccc1` [F 1459, N(2'-pyrrolidino-ethyl)-α,α-diphenyl acetamide hydrochloride], in series [1] (setting [10]), the LD50 is 48 mg/kg. Moreover, the “DL 50 oral” value in series [7] (hydrochloride) was 562 mg/kg. Besides, the bactericidal action entry in series [2] was “real and significant”. The “effect on Pseudomonas aeruginosa” value in series [3] is “more moderate but significant effect”. For the same compound, the “% decrease in no. coughs in 15 mins.” value in series [4] (50 mg/kg, hydrochloride) was -31. In addition, in series [8] (t + 10 mn), the “% variation of cough rating” value is recorded as -32% and the “Cough rating, m = average of the ratings, after treatment” value (shortened to “Cough rating, m = average”) is 0,67. Moreover, in series [8] (t + 20 mn), the “% variation of cough rating” value is given as -66% and the “Cough rating, m = average” value is reported as 0,33. In series [5] (% soluble), the Solubility in ethanol was determined as 5%, the “Solubility in propylene glycol” value is recorded as 3% and the solubility stood at 250 mg/mL. The “effect on Candida albicans” value in series [6] was “more moderate but significant effect”.
As to `O=C(NCCN1CCCC1)N1c2ccccc2Sc2ccccc21` [F 1461, N(2'-pyrrolidino-ethyl)-10-phenothiazine carboxamide hydrochloride], the LD50 in series [1] (setting [9]) was determined as 178 mg/kg; in series [1] (setting [10]), 26 mg/kg; in series [1] (po, oral, read-out: DL 50 oral) it was 560 mg/kg. The figures for the “% decrease in no. coughs in 15 mins.” value in series [4] (50 mg/kg) and in series [4] (100 mg/kg) were -12 and -25, respectively. Also, the “% variation of cough rating” value is -35% in series [8] (t + 10 mn) and -55% in series [8] (t + 20 mn). Further, the “Cough rating, m = average” value is 0,54 in series [8] (t + 10 mn) and 0,37 in series [8] (t + 20 mn). The “Solubility in N-methyl pyrrolidone” value in series [5] (N-methyl pyrrolidone, % soluble) worked out at 10%. In series [5] (% soluble), this compound returned a Solubility in ethanol of 10%. Further, in series [5] (% soluble), the “Solubility in propylene glycol” value was 10%. In series [5] (% soluble), the solubility worked out at 100 mg/mL.
For `O=C(NCCN1CCCC1)C(c1ccccc1)c1ccccc1` [F 1629, N(2-pyrrolidino-ethyl)-α,α-diphenyl-acetamide pamoate], in series [7], the “DL 50 intraperitoneal” value is recorded as 750 mg/kg and the “DL 50 oral” value amounted to 2000 mg/kg. Moreover, the “% decrease in no. coughs in 15 mins.” value in series [4] (50 mg/kg) is listed as -30. Further, the “% decrease in no. coughs in 15 mins.” value in series [4] (100 mg/kg) is listed as -50. In addition, in series [5] (in words), the Solubility in alcohol result is “Insoluble”, the “Solubility in dimethyl acetamide” value is recorded as “Soluble”, the “Solubility in methyl pyrrolidone” value is “Soluble” and the Solubility in water entry was “Insoluble”.
`COc1cc(C(=O)NCCN2CCCC2)cc(OC)c1OC` [F 1538, N(2'-pyrrolidino-ethyl)-3-4-5-trimethoxy-benzamide hydrochloride]: the LD50 in series [1] (setting [9]) came out at 300 mg/kg. Besides, the LD50 in series [1] (po, oral, read-out: DL 50 oral) came to 562 mg/kg. The change in vivo at 50 mg/kg in series [4] was -1%. Also, in series [5] (in words), the Solubility in ethanol entry was “soluble”, the “Solubility in propylene glycol” value is on record as “soluble” and the Solubility in water result is “soluble”.
As for `COc1ccc2c3c1O[C@H]1[C@@H](O)C=C[C@H]4[C@@H](C2)N(C)CC[C@@]341` [CODEINE, codeine, reference compound], in series [8] (t + 10 mn), the “% variation of cough rating” value was -22% and the “Cough rating, m = average” value is recorded as 0,75. Moreover, in series [8] (t + 20 mn), the “% variation of cough rating” value is given as -30% and the “Cough rating, m = average” value is recorded as 0,67.
As for `O=C(NCCN1CCCC1)c1cc2ccccc2oc1=O` [Example 14, N(2'-pyrrolidino-ethyl)-3-coumarin-carboxamide hydrochloride], in series [5] (% soluble), the Solubility in ethanol is on record as 4% and the “Solubility in propylene glycol” value is recorded as 7%. Further, the Solubility in water result in series [5] (in words) is reported as “very soluble”.
On to `O=C(NCCN1CCCC1)C(c1ccccc1)c1ccccc1` [F 1630, N(2-pyrrolidino-ethyl)-α,α-diphenyl-acetamide palmitate], for which, in series [7], the “DL 50 intraperitoneal” value is 500 mg/kg and the “DL 50 oral” value came out at 1500 mg/kg. In addition, in series [5] (in words), the Solubility in alcohol entry is “Poorly soluble”, the “Solubility in dimethyl acetamide” value is reported as “Poorly soluble”, the “Solubility in methyl pyrrolidone” value is on record as “Poorly soluble” and the “Solubility in propylene glycol” value was “Poorly soluble”. The Solubility in water result in series [5] (in words) is on record as “Insoluble”.
